Measured values from US20250230193A1, “CYCLIC COMPOUND HAVING SELECTIVE KRAS INHIBITORY EFFECT ON HRAS AND NRAS” (CHUGAI SEIYAKU KABUSHIKI KAISHA, priority 2022, published 2025).
Where a SMILES comes first, the peptide text is derived from it. Bridges are numbered along the chain shown (N, C = ends). [ ]: non-standard residue; d: D form. The star is where a group is joined. hPhe(3-Cl-4-CF3) = N[C@@H](CCc1ccc(C(F)(F)F)c(Cl)c1)C(=O)O; NPrPhe(4-CF3) = CCCN[C@@H](Cc1ccc(C(F)(F)F)cc1)C(=O)O; NMeGly(cPent) = CN[C@H](C(=O)O)C1CCCC1; Hyp = O=C(O)[C@@H]1C[C@@H](O)CN1; NMeD = CN[C@@H](CC(=O)O)C(=O)O; NMeL = CN[C@@H](CC(C)C)C(=O)O; NMeNva = CCC[C@H](NC)C(=O)O; Morpholide = C1CN(*)CCO1; NMeA = CN[C@@H](C)C(=O)O; Ac5c = NC1(C(=O)O)CCCC1; Aze = O=C(O)[C@@H]1CCN1; Ac4c = NC1(C(=O)O)CCC1; Sar = CNCC(=O)O

Experiments:
[1] = biological target: GDP-bound HRAS wild-type protein (Homo sapiens, UniProt P01112); assay: Binding to HRAS by surface plasmon resonance (SPR), Single Cycle Kinetics
Sequence of GDP-bound HRAS wild-type protein (P01112 whole entry): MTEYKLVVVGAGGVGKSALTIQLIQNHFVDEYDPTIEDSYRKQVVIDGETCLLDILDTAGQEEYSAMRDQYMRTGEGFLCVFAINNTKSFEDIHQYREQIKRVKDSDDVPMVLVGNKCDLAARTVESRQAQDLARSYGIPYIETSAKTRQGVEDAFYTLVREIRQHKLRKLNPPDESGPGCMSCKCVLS

[2] = biological target: GDP-bound NRAS wild-type protein (Homo sapiens, UniProt P01111); assay: Binding to NRAS by surface plasmon resonance (SPR), Single Cycle Kinetics
Sequence of GDP-bound NRAS wild-type protein (P01111 whole entry): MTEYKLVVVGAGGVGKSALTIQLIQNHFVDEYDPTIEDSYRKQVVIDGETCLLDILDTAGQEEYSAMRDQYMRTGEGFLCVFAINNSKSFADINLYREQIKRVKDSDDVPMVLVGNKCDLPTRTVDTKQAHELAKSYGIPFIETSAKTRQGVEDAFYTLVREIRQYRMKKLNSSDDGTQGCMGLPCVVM

[3] = GDP-bound HRAS wild-type vs GDP-bound KRAS wild-type, SPR
[4] = GDP-bound NRAS wild-type vs GDP-bound KRAS wild-type, SPR

## CCC[C@H]1C(=O)N[C@@H]([C@@H](C)CC)C(=O)N(C)CC(=O)N(C)CC(=O)N(CCC)[C@@H](Cc2ccc(C(F)(F)F)cc2)C(=O)N(C)CC(=O)N[C@@H](CCc2ccc(C(F)(F)F)c(Cl)c2)C(=O)N2CCC[C@H]2C(=O)NC2(CCCC2)C(=O)N(C)[C@@H](C2CCCC2)C(=O)N(C)[C@H](C(=O)N2CCOCC2)CC(=O)N1C [PP0189] ([NMeNva]I[Sar][Sar][NPrPhe(4-CF3)][Sar][hPhe(3-Cl-4-CF3)]P[Ac5c][NMeGly(cPent)][NMeD]-Morpholide; lactam N-11)
[1]; SPR
  HRAS/KRAS (ratio of KD for GDP-bound HRAS wild-type to KD for KRAS): C (A compound having a KD ratio of 0.1 or more and less than 3 is denoted as C)
[2]; SPR
  NRAS/KRAS (ratio of KD for GDP-bound NRAS wild-type to KD for KRAS): B (a compound having 3 or more and less than 10 is denoted as B)

## CCCN1C(=O)[C@@H]2CCN2C(=O)[C@H](C)N(C)C(=O)[C@H]([C@@H](C)CC)NC(=O)[C@H](CC(C)C)N(C)C(=O)C[C@@H](C(=O)N2CCOCC2)NC(=O)[C@H](C2CCCC2)N(C)C(=O)C2(CCC2)NC(=O)[C@@H]2C[C@@H](OCC)CN2C(=O)[C@H](CCc2ccc(C(F)(F)F)c(Cl)c2)NC(=O)CN(C)C(=O)[C@@H]1Cc1ccc(C(F)(F)F)cc1 [PP0348] ([NMeL]I[NMeA][Aze][NPrPhe(4-CF3)][Sar][hPhe(3-Cl-4-CF3)][Hyp](Et)[Ac4c][NMeGly(cPent)]D-Morpholide; lactam N-11)
[1]; SPR
  HRAS/KRAS (ratio of KD for GDP-bound HRAS wild-type to KD for KRAS): B (a compound having 3 or more and less than 10 is denoted as B)
[2]; SPR
  NRAS/KRAS (ratio of KD for GDP-bound NRAS wild-type to KD for KRAS): C (A compound having a KD ratio of 0.1 or more and less than 3 is denoted as C)

## CCO[C@@H]1C[C@H]2C(=O)NC3(CC(F)(F)C3)C(=O)N(C)[C@@H](C3CCCC3)C(=O)N(C)[C@H](C(=O)N(C)C)CC(=O)N(C)[C@@H](CC3CCC3)C(=O)N[C@@H]([C@@H](C)CC)C(=O)N(C)CC(=O)N(C)[C@H]3C/C=C\CCN(C3=O)[C@@H](Cc3ccc(C(F)(F)F)cc3)C(=O)N(C)CC(=O)N[C@@H](CCc3cc(F)c(C(F)(F)F)c(F)c3)C(=O)N2C1 [PP1742]
[1]; [3]
  HRAS/KRAS (ratio of KD value for HRAS to KD value for KRAS): A (a compound having 10 or more and less than 20 is denoted as A)
[2]; [4]
  NRAS/KRAS (ratio of KD value for NRAS to KD value for KRAS): A (a compound having 10 or more and less than 20 is denoted as A)

## CCC(CC)[C@H]1C(=O)N(C)[C@H](C(=O)N(C)C)CC(=O)N(C)[C@@H](COC)C(=O)N[C@@H]([C@@H](C)CC)C(=O)N(C)CC(=O)N(C)[C@H]2C/C=C\CCN(C2=O)[C@@H](Cc2ccc(C)cc2)C(=O)N(C)CC(=O)N[C@@H](CCc2ccc(Cl)c(Cl)c2)C(=O)N2C[C@H](OC3CCCC3)C[C@H]2C(=O)N(C)C2(CC(C)(C)C2)C(=O)N1C [PP2818]
[1]; class symbols
  HRAS/KRAS (ratio of KD value with respect to GDP-bound HRAS wild-type protein to KD value with respect to KRAS): A (a compound having 10 or more and less than 20 is denoted as A)
[2]; class symbols
  NRAS/KRAS (ratio of KD value with respect to GDP-bound NRAS wild-type protein to KD value with respect to KRAS): A (a compound having 10 or more and less than 20 is denoted as A)

## CCC[C@H]1C(=O)N[C@@H](C(CC)CC)C(=O)N(C)CC(=O)N(C)[C@H]2C/C=C\CCN(C2=O)[C@@H](Cc2ccc(C)cc2)C(=O)N(C)CC(=O)N[C@@H](CCc2ccc(C(F)(F)F)c(Cl)c2)C(=O)N2C[C@H](OCC)C[C@H]2C(=O)NC2(CC(C)(C)C2)C(=O)N(C)[C@@H](CC(C)C)C(=O)N(C)[C@H](C(=O)N(C)C)CC(=O)N1C [PP2202]
[1]; SPR, GDP-bound HRAS wild-type vs GDP-bound KRAS wild-type
  HRAS/KRAS (ratio of KD value with respect to HRAS to KD value with respect to KRAS): A (a compound having 10 or more and less than 20 is denoted as A)
[2]; SPR, GDP-bound NRAS wild-type vs GDP-bound KRAS wild-type
  NRAS/KRAS (ratio of KD value with respect to NRAS to KD value with respect to KRAS): A (a compound having 10 or more and less than 20 is denoted as A)

## CC[C@H](C)[C@@H]1NC(=O)[C@H](CC(C)C)N(C)C(=O)C[C@@H](C(=O)N2CCOCC2)N(C)C(=O)[C@H](C2CCCC2)N(CC)C(=O)C2(CCCC2)NC(=O)[C@@H]2CCCN2C(=O)[C@H](CCc2cc(F)c(C(F)(F)F)c(F)c2)NC(=O)CN(C)C(=O)[C@H](Cc2ccc(C(F)(F)F)cc2)N2CCCC[C@@H](C2=O)N(C)C(=O)CN(C)C1=O [PP0538]
[1]; SPR
  HRAS/KRAS (ratio of KD value with respect to GDP-bound HRAS wild-type protein to KD value with respect to KRAS): B (a compound having 3 or more and less than 10 is denoted as B)
[2]; SPR
  NRAS/KRAS (ratio of KD value with respect to GDP-bound NRAS wild-type protein to KD value with respect to KRAS): B (a compound having 3 or more and less than 10 is denoted as B)

## CCCN(C)C(=O)[C@@H]1CC(=O)N(C)[C@@H](COCC)C(=O)N[C@@H]([C@@H](C)CC)C(=O)N(C)CC(=O)N(C)[C@H]2C/C=C\CCN(C2=O)[C@@H](Cc2ccc(C(F)(F)F)cc2)C(=O)N(C)CC(=O)N[C@@H](CCc2ccc(C(F)(F)F)c(OC)c2)C(=O)N2C[C@H](OCC)C[C@H]2C(=O)NC2(CC(C)(C)C2)C(=O)N(C)[C@@H](C2CCCC2)C(=O)N1C [PP2012]
[1]; [3]
  HRAS/KRAS (ratio of KD value for HRAS to KD value for KRAS): A (a compound having 10 or more and less than 20 is denoted as A)
[2]; [4]
  NRAS/KRAS (ratio of KD value for NRAS to KD value for KRAS): AA (a compound having 20 or more is denoted as AA)
